Results taken from US12310975B2, “Modulators of BCL6 proteolysis and associated methods of use” (Arvinas Operations, Inc., priority 2019, dated 2025).

These compounds were tested against BCL6 (Homo sapiens (Human), UniProt P41182) (assay: Immunofluorescence high content imaging of BCL6 degradation in T47D cells). Conditions: T47D cells.
Type: cell-based
In short: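 T47D cells were treated 3 days at 37 °C with an 11-point 3-fold dilution series (top 0.1 or 1 μM), then fixed, permeabilized and immunostained for BCL6 with Alexa-488 secondary, CellMask and Hoechst. BCL6 signal was imaged at 10×, 4 fields/well, with top-hat smoothing.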
`CNC(=O)COc1cc2cc(Nc3nc(N4CC5(CC(OC6CCN(c7ccc8c(c7)C(=O)N(C7CCC(=O)NC7=O)C8=O)CC6)C5)C4)ncc3Cl)ccc2n(C(C)C)c1=O` (centres unmarked) [compound 405, 2-{[6-({5-chloro-2-[6-({1-[2-(2,6-dioxopiperidin-3-yl)-1,3-dioxo-2,3-dihydro-1H-isoindol-5-yl]piperidin-4-yl}oxy)-2-azaspiro[3.3]heptan-2-yl]pyrimidin-4-yl}amino)-2-oxo-1-(propan-2-yl)-1,2-dihydroquinolin-3-yl]oxy}-N-methylacetamide] was tested, and the IC50 was at least 100 nM. `CNC(=O)COc1cc2cc(Nc3nc(N4CC5(CC(OC6CCN(c7cccc8c7C(=O)N(C7CCC(=O)NC7=O)C8=O)CC6)C5)C4)ncc3Cl)ccc2n(C(C)C)c1=O` (centres unmarked) [compound 406, 2-{[6-({5-chloro-2-[6-({1-[2-(2,6-dioxopiperidin-3-yl)-1,3-dioxo-2,3-dihydro-1H-isoindol-4-yl]piperidin-4-yl}oxy)-2-azaspiro[3.3]heptan-2-yl]pyrimidin-4-yl}amino)-2-oxo-1-(propan-2-yl)-1,2-dihydroquinolin-3-yl]oxy}-N-methylacetamide] was tested, and the Dmax was at least 70% and the IC50 was under 10 nM. `CNC(=O)COc1cc2cc(Nc3nc(N4CCN(CC5CCN(C(=O)c6cccc(N7CCC(=O)NC7=O)c6)CC5)CC4)ncc3Cl)ccc2n(C(C)C)c1=O` [compound 407, 2-{[6-({5-chloro-2-[4-({1-[3-(2,4-dioxo-1,3-diazinan-1-yl)benzoyl]piperidin-4-yl}methyl)piperazin-1-yl]pyrimidin-4-yl}amino)-2-oxo-1-(propan-2-yl)-1,2-dihydroquinolin-3-yl]oxy}-N-methylacetamide] showed an IC50 of at least 100 nM. Work on `CNC(=O)COc1cc2cc(Nc3nc(N4CCN(CC5CCN(C(=O)c6ccc(N7CCC(=O)NC7=O)c(OC)c6)CC5)CC4)ncc3Cl)ccc2n(C(C)C)c1=O` [compound 408, 2-{[6-({5-chloro-2-[4-({1-[4-(2,4-dioxo-1,3-diazinan-1-yl)-3-methoxybenzoyl]piperidin-4-yl}methyl)piperazin-1-yl]pyrimidin-4-yl}amino)-2-oxo-1-(propan-2-yl)-1,2-dihydroquinolin-3-yl]oxy}-N-methylacetamide] yielded an IC50 of at least 100 nM. `CNC(=O)COc1cc2cc(Nc3nc(N4CCC(O[C@H]5C[C@H](N6CCC(c7cccc8c7C(=O)N(C7CCC(=O)NC7=O)C8=O)CC6)C5)CC4)ncc3Cl)ccc2n(C(C)C)c1=O` (some centres unmarked) [compound 409, 2-({6-[(5-chloro-2-{4-[(1r,3r)-3-{4-[2-(2,6-dioxopiperidin-3-yl)-1,3-dioxo-2,3-dihydro-1H-isoindol-4-yl]piperidin-1-yl}cyclobutoxy]piperidin-1-yl}pyrimidin-4-yl)amino]-2-oxo-1-(propan-2-yl)-1,2-dihydroquinolin-3-yl}oxy)-N-methylacetamide] was tested, and the Dmax was 50 to 70% and the IC50 was under 10 nM. Compound `CNC(=O)COc1cc2cc(Nc3nc(N4CCN(CC5CCC6(CC5)CN(c5ccc(OC)c7c5C(=O)N(C5CCC(=O)NC5=O)C7=O)C6)CC4)ncc3Cl)ccc2n(C(C)C)c1=O` (centres unmarked) [compound 411, 2-{[6-({5-chloro-2-[4-({2-[2-(2,6-dioxopiperidin-3-yl)-7-methoxy-1,3-dioxo-2,3-dihydro-1H-isoindol-4-yl]-2-azaspiro[3.5]nonan-7-yl}methyl)piperazin-1-yl]pyrimidin-4-yl}amino)-2-oxo-1-(propan-2-yl)-1,2-dihydroquinolin-3-yl]oxy}-N-methylacetamide] has a Dmax of under 50% and an IC50 of under 10 nM. `CNC(=O)COc1cc2cc(Nc3nc(N4CCC(OC5CC6(C5)CN(c5ccc7c(c5)CN(C5CCC(=O)NC5=O)C7=O)C6)CC4)ncc3Cl)ccc2n(C(C)C)c1=O` (centres unmarked) [compound 412, 2-{[6-({5-chloro-2-[4-({2-[2-(2,6-dioxopiperidin-3-yl)-1-oxo-2,3-dihydro-1H-isoindol-5-yl]-2-azaspiro[3.3]heptan-6-yl}oxy)piperidin-1-yl]pyrimidin-4-yl}amino)-2-oxo-1-(propan-2-yl)-1,2-dihydroquinolin-3-yl]oxy}-N-methylacetamide] was tested, and the Dmax was at least 70% and the IC50 was under 10 nM. `CNC(=O)COc1cc2cc(Nc3nc(N4CCC5(CC4)CN(CC4CCN(c6ccc7c(c6)CN(C6CCC(=O)NC6=O)C7=O)CC4)C5)ncc3Cl)ccc2n(C(C)C)c1=O` (centres unmarked) [compound 413, 2-{[6-({5-chloro-2-[2-({1-[2-(2,6-dioxopiperidin-3-yl)-1-oxo-2,3-dihydro-1H-isoindol-5-yl]piperidin-4-yl}methyl)-2,7-diazaspiro[3.5]nonan-7-yl]pyrimidin-4-yl}amino)-2-oxo-1-(propan-2-yl)-1,2-dihydroquinolin-3-yl]oxy}-N-methylacetamide] was tested, and the Dmax was 50 to 70% and the IC50 was under 10 nM. `CNC(=O)COc1cc2cc(Nc3nc(N4CCN(CC5CCN(c6cc(OC)cc7c6C(=O)N(C6CCC(=O)NC6=O)C7=O)CC5)CC4)ncc3Cl)ccc2n(C(C)C)c1=O` (centres unmarked) [compound 414, 2-{[6-({5-chloro-2-[4-({1-[2-(2,6-dioxopiperidin-3-yl)-6-methoxy-1,3-dioxo-2,3-dihydro-1H-isoindol-4-yl]piperidin-4-yl}methyl)piperazin-1-yl]pyrimidin-4-yl}amino)-2-oxo-1-(propan-2-yl)-1,2-dihydroquinolin-3-yl]oxy}-N-methylacetamide] was tested, and the Dmax was at least 70%. `CNC(=O)COc1cc2cc(Nc3nc(N4CCC(CN5CCC(c6ccc(N7CCC(=O)NC7=O)c(OC)c6)CC5)CC4)ncc3Cl)ccc2n(C(C)C)c1=O` [compound 415, 2-{[6-({5-chloro-2-[4-({4-[4-(2,4-dioxo-1,3-diazinan-1-yl)-3-methoxyphenyl]piperidin-1-yl}methyl)piperidin-1-yl]pyrimidin-4-yl}amino)-2-oxo-1-(propan-2-yl)-1,2-dihydroquinolin-3-yl]oxy}-N-methylacetamide] showed an IC50 of at least 100 nM. In the case of `CNC(=O)COc1cc2cc(Nc3nc(N4CCC(CN5CCC(c6cccc(N7CCC(=O)NC7=O)c6)CC5)CC4)ncc3Cl)ccc2n(C(C)C)c1=O` [compound 416, 2-{[6-({5-chloro-2-[4-({4-[3-(2,4-dioxo-1,3-diazinan-1-yl)phenyl]piperidin-1-yl}methyl)piperidin-1-yl]pyrimidin-4-yl}amino)-2-oxo-1-(propan-2-yl)-1,2-dihydroquinolin-3-yl]oxy}-N-methylacetamide], the IC50 is reported as at least 100 nM. `CNC(=O)COc1cc2cc(Nc3nc(N4CCC(CN5CCC6(CC5)CN(c5ccc7c(c5)CN(C5CCC(=O)NC5=O)C7=O)C6)CC4)ncc3Cl)ccc2n(C(C)C)c1=O` (centres unmarked) [compound 417, 2-{[6-({5-chloro-2-[4-({2-[2-(2,6-dioxopiperidin-3-yl)-1-oxo-2,3-dihydro-1H-isoindol-5-yl]-2,7-diazaspiro[3.5]nonan-7-yl}methyl)piperidin-1-yl]pyrimidin-4-yl}amino)-2-oxo-1-(propan-2-yl)-1,2-dihydroquinolin-3-yl]oxy}-N-methylacetamide] gave a Dmax of at least 70% and an IC50 of under 10 nM. For `CNC(=O)COc1cc2cc(Nc3nc(N4CCC(CN5CCC6(CC5)CN(c5cccc7c5C(=O)N(C5CCC(=O)NC5=O)C7=O)C6)CC4)ncc3Cl)ccc2n(C(C)C)c1=O` (centres unmarked) [compound 418, 2-{[6-({5-chloro-2-[4-({2-[2-(2,6-dioxopiperidin-3-yl)-1,3-dioxo-2,3-dihydro-1H-isoindol-4-yl]-2,7-diazaspiro[3.5]nonan-7-yl}methyl)piperidin-1-yl]pyrimidin-4-yl}amino)-2-oxo-1-(propan-2-yl)-1,2-dihydroquinolin-3-yl]oxy}-N-methylacetamide], the Dmax was at least 70% and the IC50 was under 10 nM.
